Laboratory results: patent US20240018161A1, “MODULATORS OF CYSTIC FIBROSIS TRANSMEMBRANE CONDUCTANCE REGULATOR” (VERTEX PHARMACEUTICALS INCORPORATED, priority 2020, published 2024)
Read-outs that look alike come from different tables or passages of the source.

Molecular target: CFTR-mediated chloride transport in human intestinal epithelial enteroid cells (Homo sapiens, UniProt P13569)
Assay: Membrane potential dye, Enteroid Assay A
Assay type: cell-based
Details: for EC50: read-out: Ent. A EC50
Outline: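 Membrane potential dye (20 μM methyl oxonol, with 30 μM CaCCinh-A01 and 30 μM Chicago Sky Blue) loaded 25 min at room temperature into ROCK-inhibitor-seeded human enteroid cells. Chloride-free stimulation buffer triggered transport, followed by 15 min fluorescence. % Activity relative to 3 μM/3 μM/300 nM triple-combination control.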

[1] = enteroid cells incubated with test compound 18-24 hours, acute 10 μM forskolin and 300 nM N-[2,4-bis(1,1-dimethylethyl)-5-hydroxyphenyl]-1,4-dihydro-4-oxoquinoline-3-carboxamide
[2] = percentage of chloride transport of triple combination control (3 μM N-[(6-amino-2-pyridyl)sulfonyl]-6-(3-fluoro-5-isobutoxy-phenyl)-2-[(4S)-2,2,4-trimethylpyrrolidin-1-yl]pyridine-3-carboxamide based)

Chain of CFTR-mediated chloride transport in human intestinal epithelial enteroid cells (P13569 with tags, fused parts or gaps DEL508-508): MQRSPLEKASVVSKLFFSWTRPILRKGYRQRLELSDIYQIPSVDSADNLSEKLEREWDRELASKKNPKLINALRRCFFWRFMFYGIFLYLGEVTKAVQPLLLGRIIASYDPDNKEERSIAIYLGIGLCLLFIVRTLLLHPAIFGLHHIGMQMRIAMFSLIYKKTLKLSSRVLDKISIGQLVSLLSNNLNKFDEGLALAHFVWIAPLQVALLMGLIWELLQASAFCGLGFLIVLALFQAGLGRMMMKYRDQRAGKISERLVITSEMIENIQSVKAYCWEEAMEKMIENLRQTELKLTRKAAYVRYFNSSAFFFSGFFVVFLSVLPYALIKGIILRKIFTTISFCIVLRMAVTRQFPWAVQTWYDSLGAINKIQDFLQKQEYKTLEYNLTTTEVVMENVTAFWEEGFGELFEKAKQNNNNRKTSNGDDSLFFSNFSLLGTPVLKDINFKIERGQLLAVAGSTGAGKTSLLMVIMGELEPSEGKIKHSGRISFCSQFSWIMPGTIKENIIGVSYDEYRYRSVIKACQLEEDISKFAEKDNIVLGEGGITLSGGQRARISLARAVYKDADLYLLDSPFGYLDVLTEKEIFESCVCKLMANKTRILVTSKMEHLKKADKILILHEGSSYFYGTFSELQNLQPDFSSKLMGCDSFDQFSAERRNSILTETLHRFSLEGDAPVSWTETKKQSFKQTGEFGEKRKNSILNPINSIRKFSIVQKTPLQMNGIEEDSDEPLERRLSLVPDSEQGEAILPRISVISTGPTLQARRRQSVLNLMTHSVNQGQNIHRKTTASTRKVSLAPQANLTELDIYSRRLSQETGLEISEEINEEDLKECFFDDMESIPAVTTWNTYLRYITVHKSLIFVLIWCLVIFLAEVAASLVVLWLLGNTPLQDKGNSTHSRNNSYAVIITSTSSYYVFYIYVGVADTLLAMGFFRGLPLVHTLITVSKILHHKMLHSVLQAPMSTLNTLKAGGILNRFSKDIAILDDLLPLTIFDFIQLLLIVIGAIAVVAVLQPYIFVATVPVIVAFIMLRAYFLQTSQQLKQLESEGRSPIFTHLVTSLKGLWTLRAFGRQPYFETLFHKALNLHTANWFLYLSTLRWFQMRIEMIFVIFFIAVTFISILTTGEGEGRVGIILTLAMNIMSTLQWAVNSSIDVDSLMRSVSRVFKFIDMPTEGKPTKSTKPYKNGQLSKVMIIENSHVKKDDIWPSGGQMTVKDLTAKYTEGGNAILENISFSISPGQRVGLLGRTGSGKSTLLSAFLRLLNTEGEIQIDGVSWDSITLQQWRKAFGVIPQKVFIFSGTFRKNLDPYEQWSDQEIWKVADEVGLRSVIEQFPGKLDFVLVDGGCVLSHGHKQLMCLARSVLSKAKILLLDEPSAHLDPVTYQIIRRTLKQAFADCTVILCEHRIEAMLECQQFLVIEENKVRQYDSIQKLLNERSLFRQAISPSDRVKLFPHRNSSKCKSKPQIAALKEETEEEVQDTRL

| SMILES | Ent. A Max Activity (%) (Enteroid Assay A) | EC50 (Enteroid Assay A) [nM] | EC50 [1] [nM] | Ent. A Max Activity (%) [2] |
| --- | --- | --- | --- | --- |
| Cc1cccc(C)c1-c1cc2nc(n1)NS(=O)(=O)c1cccc(c1)C(=O)N1CCCN(CCC(C)(C)C)CC(C1)O2 (stereo not shown) [Compound 206, 18-(3,3-Dimethylbutyl)-12-(2,6-dimethylphenyl)-15-oxa-8λ^6-thia-1,9,11,18,23-pentaazatetracyclo[14.5.1.13,7.110,14]tetracosa-3,5,7(24),10,12,14(23)-hexaene-2,8,8-trione] | ++ (++ is 30-60%) | < 1000 |  |  |
| Cc1cccc(C)c1-c1cc2nc(n1)NS(=O)(=O)c1cc(n(C)c1)C(=O)N1Cc3ccccc3C(C1)O2 (stereo not shown) [Compound 207, 11-(2,6-Dimethylphenyl)-4-methyl-14-oxa-7λ^6-thia-1,4,8,10,24-pentaazapentacyclo[13.7.1.13,6.19,13.016,21]pentacosa-3(25),5,9(24),10,12,16(21),17,19-octaene-2,7,7-trione] |  |  | < 1000 | ++ (++ is 30-60%) |
| Cc1cccc(C)c1-c1cc2nc(n1)NS(=O)(=O)c1cccc(c1)CN1Cc3ccccc3C(C1)O2 (stereo not shown) [Compound 208, 12-(2,6-Dimethylphenyl)-15-oxa-8λ^6-thia-1,9,11,25-tetraazapentacyclo[14.7.1.13,7.110,14.017,22]hexacosa-3(26),4,6,10,12,14(25),17(22),18,20-nonaene-8,8-dione] |  |  | < 1000 | ++ (++ is 30-60%) |
| Cc1cccc(C)c1-c1cc2nc(n1)NS(=O)(=O)c1cccc(c1)C(=O)N1CCOC[C@@H]1[C@@H](Cc1ccccc1)O2 [Compound 209, (8R)-9-Benzyl-13-(2,6-dimethylphenyl)-6,10-dioxa-17λ^6-thia-3,14,16,23-tetraazatetracyclo[16.3.1.111,15.03,8]tricosa-1(22),11,13,15(23),18,20-hexaene-2,17,17-trione] |  |  | < 1000 | +++ (+++ is >60%) |
| Cc1cccc(C)c1-c1cc2nc(n1)NS(=O)(=O)c1cccc(c1)C(=O)N1Cc3ccccc3C[C@@H]1CO2 [Compound 211, (12R)-17-(2,6-Dimethylphenyl)-14-oxa-21λ^6-thia-3,18,20,27-tetraazapentacyclo[20.3.1.115,19.03,12.05,10]heptacosa-1(26),5(10),6,8,15(27),16,18,22,24-nonaene-2,21,21-trione] |  |  | < 1000 | +++ (+++ is >60%) |
| Cc1cccc(C)c1-c1cc2nc(n1)NS(=O)(=O)c1cccc(c1)C(=O)N1Cc3ccccc3C[C@H]1CO2 [Compound 212, (12S)-17-(2,6-Dimethylphenyl)-14-oxa-21λ^6-thia-3,18,20,27-tetraazapentacyclo[20.3.1.115,19.03,12.05,10]heptacosa-1(26),5(10),6,8,15(27),16,18,22,24-nonaene-2,21,21-trione] |  |  | < 1000 | ++ (++ is 30-60%) |
| Cc1cccc(C)c1-c1cc2nc(n1)NS(=O)(=O)c1cccc(c1)C(=O)N1CCc3ccccc3C(C1)O2 (stereo not shown) [Compound 220, 12-(2,6-Dimethylphenyl)-15-oxa-8λ^6-thia-1,9,11,26-tetraazapentacyclo[14.8.1.13,7.110,14.017,22]heptacosa-3(27),4,6,10(26),11,13,17,19,21-nonaene-2,8,8-trione] |  |  | < 1000 | +++ (+++ is >60%) |
| Cc1cccc(C)c1-c1cc2nc(n1)NS(=O)(=O)c1cccc(c1)C(=O)N1CC(CC3(CCCC3)C1)O2 (stereo not shown) [Compound 229, 18′-(2,6-Dimethylphenyl)-2′-oxa-14′λ^6-thia-7′,15′,17′,20′-tetraazaspiro[cyclopentane-1,5′-tetracyclo[14.3.1.13,7.19,13]docosane]-1′(20′),9′,11′,13′(21′),16′,18′-hexaene-8′,14′,14′-trione] |  |  | < 1000 | ++ (++ is 30-60%) |
| Cc1cccc(C)c1-c1cc2nc(n1)NS(=N)(=O)c1cccc(c1)C(=O)N1CCN(C(=O)OC(C)(C)C)CC(C1)O2 (stereo not shown) [Compound 240, tert-butyl 12-(2,6-dimethylphenyl)-8-imino-2,8-dioxo-15-oxa-8λ^6-thia-1,9,11,18,22-pentaazatetracyclo[14.4.1.13,7.110,14]tricosa-3,5,7(23),10,12,14(22)-hexaene-18-carboxylate] | ++ (++ is 30-60%) | 3000 to 30000 |  |  |
| Cc1cccc(C)c1-c1cc2nc(n1)NS(=N)(=O)c1cccc(c1)C(=O)N1CCNCC(C1)O2 (stereo not shown) [Compound 241, 12-(2,6-Dimethylphenyl)-8-imino-15-oxa-8λ^6-thia-1,9,11,18,22-pentaazatetracyclo[14.4.1.13,7.110,14]tricosa-3,5,7(23),10,12,14(22)-hexaene-2,8-dione] | + (+ is <30%) |  |  |  |
| Cc1cccc(C)c1-c1cc2nc(n1)NS(=N)(=O)c1cccc(c1)C(=O)N1CCNCC(C1)O2 (stereo not shown) [Compound 242, 12-(2,6-Dimethylphenyl)-8-imino-15-oxa-8λ^6-thia-1,9,11,18,22-pentaazatetracyclo[14.4.1.13,7.110,14]tricosa-3,5,7(23),10,12,14(22)-hexaene-2,8-dione] | + (+ is <30%) |  |  |  |
| Cc1cccc(C)c1-c1cc2nc(n1)NS(=N)(=O)c1cccc(c1)C(=O)N1CCN(Cc3ccccc3)CC(C1)O2 (stereo not shown) [Compound 246] | ++ (++ is 30-60%) | 1000 to 3000 |  |  |
| Cc1cccc(C)c1-c1cc2nc(n1)NS(=N)(=O)c1cccc(c1)C(=O)N1CCN(CCC(C)(C)C)CC(C1)O2 (stereo not shown) [Compound 247] | + (+ is <30%) | 1000 to 3000 |  |  |
| Cc1cccc(C)c1-c1cc2nc(n1)NS(=O)(=O)N1CCc3ccc(cc31)C(=O)N1Cc3ccccc3[C@@H](O2)[C@H]1CC(C)C [Compound 249] | ++ (++ is 30-60%) | < 1000 |  |  |
| Cc1cccc(C)c1-c1cc2nc(n1)NS(=O)(=O)N1CCc3ccc(cc31)C(=O)N1Cc3ccccc3[C@@H](O2)[C@H]1CC(C)C [Compound 250] | ++ (++ is 30-60%) | 1000 to 3000 |  |  |
| COC(=O)C1CC2CN(C1)C(=O)Nc1cccc(c1)S(=O)(=O)Nc1nc(cc(-c3c(C)cccc3C)n1)O2 (stereo not shown) [Compound 252] |  |  | 1000 to 3000 | ++ (++ is 30-60%) |
| Cc1cccc(C)c1-c1cc2nc(n1)NS(=O)(=O)c1cccc(c1)C1CCCCN1C(CC(C)C)CO2 (stereo not shown) [Compound 253] |  |  |  | + (+ is <300%) |
| Cc1cccc(C)c1-c1cc2nc(n1)NS(=O)(=O)c1cccc(c1)C(=O)N1CC(C)(C)OCC1CO2 (stereo not shown) [Compound 254] |  |  | 1000 to 3000 | ++ (++ is 30-60%) |
| Cc1cccc(C)c1-c1cc2nc(n1)NS(=O)(=O)c1cccc(c1)C(=O)N1CCN(C(=O)CC3CCCCC3)C[C@@H]1CO2 [Compound 255] |  |  | < 1000 | ++ (++ is 30-60%) |
| Cc1cccc(C)c1-c1cc2nc(n1)NS(=O)(=O)c1cccc(c1)C(=O)N1CCN(CC3CCOC(C)(C)C3)C[C@@H]1CO2 (stereo partly shown) [Compound 256] |  |  | < 1000 | +++ (+++ is >60%) |
| Cc1cccc(C)c1-c1cc2nc(n1)NS(=O)(=O)c1cccc(c1)C(=O)N1CCN(CC3(NC(=O)OC(C)(C)C)CCCC3)C[C@@H]1CO2 [Compound 257] |  |  | < 1000 | +++ (+++ is >60%) |
| Cc1cccc(C)c1-c1cc2nc(n1)NS(=O)(=O)c1cccc(c1)C(=O)N1CCN(C(=O)N3CCCCC3)C[C@@H]1CO2 [Compound 258] |  |  | 3000 to 30000 | ++ (++ is 30-60%) |
| CCC(CC)CN1CCN2C(=O)c3cccc(c3)S(=O)(=O)Nc3nc(cc(-c4c(C)cccc4C)n3)OC[C@H]2C1 [Compound 259] |  |  | < 1000 | +++ (+++ is >60%) |
